# The supplement of paper PMC10307832
# Compound: CC(C)C[C@@H](C(=O)N[C@H](C(=O)OC1CCCC1)c1ccccc1)[C@H](O)C(=O)NO [Tosedostat] + COc1cccc2cc(-c3nc([C@H]4CC[C@H](C(=O)O)CC4)n4ncnc(N)c34)[nH]c12 [OSI-027] (partner 0.5 µM)
# Assay: relative viability (nuclei count vs DMSO), 5 days (fraction); higher = more cells survive
# Conditions: first compound 0.02 µM
# Procedure, shortened: (§1)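 A single step with final 0.05% Triton X-100, 1% formaldehyde and 1 ug/ml Hoechst fixed the cells and stained nuclei 5 days after treatment. Lung cancer cell lines in 1536-well plates had been treated by pin tool the day after seeding with one drug alone or a fixed anchor-drug dose plus five library-drug doses (not always all listed) in √10 steps, and nuclei were counted on 4× images. Relative viability is the ratio of nuclei in treated wells to nuclei in vehicle wells, taken as the median of duplicate plates.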
row,Cell Line,relative viability
1,NCI-H522,0.842
2,NCI-H1623,0.433
3,SK-LU-1,0.43
4,NCI-H1792,0.71
5,NCI-H2087,0.664
6,NCI-H596,0.826
7,NCI-H1355,0.377
8,SW 1573,0.653
9,LCLC-103H,0.553
10,NCI-H727,0.583
11,NCI-H2405,0.662
12,EMC-BAC-2,0.4
13,NCI-H23,0.702
14,HCC-366,1.15
15,NCI-H1648,0.28
16,NCI-H1563,0.813

# Same assay, conditions: first compound 0.06325 µM
row,Cell Line,relative viability
1,NCI-H522,0.82
2,NCI-H1623,0.429
3,SK-LU-1,0.348
4,NCI-H1792,0.68
5,NCI-H2087,0.497
6,NCI-H596,0.924
7,NCI-H1355,0.399
8,SW 1573,0.517
9,LCLC-103H,0.417
10,NCI-H727,0.636
11,NCI-H2405,0.637
12,EMC-BAC-2,0.405
13,NCI-H23,0.599
14,HCC-366,0.806
15,NCI-H1648,0.268
16,NCI-H1563,0.797

# Same assay, conditions: first compound 0.2 µM
row,Cell Line,relative viability
1,NCI-H522,0.819
2,NCI-H1623,0.456
3,SK-LU-1,0.337
4,NCI-H1792,0.752
5,NCI-H2087,0.487
6,NCI-H596,0.909
7,NCI-H1355,0.442
8,SW 1573,0.558
9,LCLC-103H,0.491
10,NCI-H2405,0.707
11,EMC-BAC-2,0.412
12,NCI-H23,0.683
13,HCC-366,1.01
14,NCI-H1648,0.262
15,NCI-H1563,0.788

# Same assay, conditions: first compound 0.6325 µM
row,Cell Line,relative viability
1,NCI-H522,0.916
2,NCI-H1623,0.462
3,SK-LU-1,0.297
4,NCI-H1792,0.729
5,NCI-H2087,0.543
6,NCI-H596,0.564
7,NCI-H1355,0.413
8,SW 1573,0.479
9,LCLC-103H,0.502
10,NCI-H727,0.492
11,NCI-H2405,0.596
12,EMC-BAC-2,0.416
13,NCI-H23,0.494
14,HCC-366,0.643
15,NCI-H1648,0.242
16,NCI-H1563,0.891

# Same assay, conditions: first compound 2 µM
row,Cell Line,relative viability
1,NCI-H522,0.79
2,NCI-H1623,0.453
3,SK-LU-1,0.329
4,NCI-H1792,1.08
5,NCI-H2087,0.559
6,NCI-H596,0.629
7,NCI-H1355,0.351
8,SW 1573,0.482
9,LCLC-103H,0.472
10,NCI-H727,0.419
11,NCI-H2405,0.585
12,EMC-BAC-2,0.319
13,NCI-H23,0.372
14,HCC-366,0.594
15,NCI-H1648,0.267
16,NCI-H1563,0.836

# Compound: CC(C)C[C@@H](C(=O)N[C@H](C(=O)OC1CCCC1)c1ccccc1)[C@H](O)C(=O)NO [Tosedostat] + N=C(N)NC(=N)NCCc1ccccc1 [Phenformin] (partner 250 µM)
# Assay: as above
# Conditions: first compound 0.02 µM
# Procedure, shortened: as §1
row,Cell Line,relative viability
1,NCI-H522,1.31
2,NCI-H1623,0.558
3,SK-LU-1,0.598
4,NCI-H1792,0.243
5,NCI-H2087,0.473
6,NCI-H596,0.734
7,NCI-H1355,0.43
8,SW 1573,0.417
9,LCLC-103H,0.361
10,NCI-H727,0.705
11,NCI-H2405,0.398
12,EMC-BAC-2,0.495
13,NCI-H23,0.782
14,HCC-366,0.573
15,A549,0.154
16,NCI-H1563,0.653

# Same assay, conditions: first compound 0.06325 µM
row,Cell Line,relative viability
1,NCI-H522,0.592
2,NCI-H1623,0.609
3,SK-LU-1,0.535
4,NCI-H1792,0.472
5,NCI-H2087,0.413
6,NCI-H596,0.762
7,NCI-H1355,0.445
8,SW 1573,0.364
9,LCLC-103H,0.308
10,NCI-H727,0.485
11,NCI-H2405,0.407
12,EMC-BAC-2,0.508
13,NCI-H23,0.802
14,HCC-366,0.623
15,A549,0.217
16,NCI-H1563,0.703

# Same assay, conditions: first compound 0.2 µM
row,Cell Line,relative viability
1,NCI-H522,0.659
2,NCI-H1623,0.622
3,SK-LU-1,0.52
4,NCI-H1792,0.445
5,NCI-H2087,0.329
6,NCI-H596,0.761
7,NCI-H1355,0.457
8,SW 1573,0.302
9,LCLC-103H,0.323
10,NCI-H2405,0.397
11,EMC-BAC-2,0.552
12,NCI-H23,0.754
13,HCC-366,0.638
14,A549,0.233
15,NCI-H1563,0.662

# Same assay, conditions: first compound 0.6325 µM
row,Cell Line,relative viability
1,NCI-H522,0.624
2,NCI-H1623,0.519
3,SK-LU-1,0.428
4,NCI-H1792,0.404
5,NCI-H2087,0.28
6,NCI-H596,0.72
7,NCI-H1355,0.38
8,SW 1573,0.336
9,LCLC-103H,0.323
10,NCI-H727,0.442
11,NCI-H2405,0.368
12,EMC-BAC-2,0.473
13,NCI-H23,0.707
14,HCC-366,0.532
15,A549,0.101
16,NCI-H1563,0.722

# Same assay, conditions: first compound 2 µM
row,Cell Line,relative viability
1,NCI-H522,0.58
2,NCI-H1623,0.618
3,SK-LU-1,0.525
4,NCI-H1792,0.31
5,NCI-H2087,0.22
6,NCI-H596,0.599
7,NCI-H1355,0.377
8,SW 1573,0.342
9,LCLC-103H,0.32
10,NCI-H727,0.397
11,NCI-H2405,0.359
12,EMC-BAC-2,0.442
13,NCI-H23,0.404
14,HCC-366,0.6
15,A549,0.116
16,NCI-H1563,0.65

# Compound: CC(C)C[C@@H](C(=O)N[C@H](C(=O)OC1CCCC1)c1ccccc1)[C@H](O)C(=O)NO [Tosedostat] + CC(=O)c1c(C)c2cnc(Nc3ccc(N4CCNCC4)cn3)nc2n(C2CCCC2)c1=O [Palbociclib] (partner 0.5 µM)
# Assay: as above
# Conditions: first compound 0.02 µM
# Procedure, shortened: as §1
row,Cell Line,relative viability
1,NCI-H522,0.964
2,SK-LU-1,0.429
3,NCI-H1792,0.659
4,NCI-H2087,0.247
5,NCI-H1355,0.351
6,SW 1573,0.427
7,LCLC-103H,0.447
8,NCI-H727,0.715
9,NCI-H2405,0.576
10,EMC-BAC-2,0.516
11,NCI-H23,0.509
12,HCC-366,0.389
13,NCI-H1648,0.251

# Same assay, conditions: first compound 0.06325 µM
row,Cell Line,relative viability
1,NCI-H522,0.845
2,SK-LU-1,0.401
3,NCI-H1792,0.634
4,NCI-H2087,0.288
5,NCI-H1355,0.399
6,SW 1573,0.394
7,LCLC-103H,0.483
8,NCI-H727,0.637
9,NCI-H2405,0.559
10,EMC-BAC-2,0.522
11,NCI-H23,0.494
12,HCC-366,0.43
13,NCI-H1648,0.264

# Same assay, conditions: first compound 0.2 µM
row,Cell Line,relative viability
1,NCI-H522,1.02
2,SK-LU-1,0.467
3,NCI-H1792,0.612
4,NCI-H2087,0.233
5,NCI-H1355,0.384
6,SW 1573,0.369
7,LCLC-103H,0.456
8,NCI-H727,0.617
9,NCI-H2405,0.548
10,EMC-BAC-2,0.536
11,NCI-H23,0.521
12,HCC-366,0.372
13,NCI-H1648,0.263

# Same assay, conditions: first compound 0.6325 µM
row,Cell Line,relative viability
1,NCI-H522,1.17
2,SK-LU-1,0.341
3,NCI-H1792,0.683
4,NCI-H2087,0.207
5,NCI-H1355,0.403
6,SW 1573,0.308
7,LCLC-103H,0.504
8,NCI-H727,0.645
9,NCI-H2405,0.484
10,EMC-BAC-2,0.484
11,NCI-H23,0.37
12,HCC-366,0.391
13,NCI-H1648,0.313

# Same assay, conditions: first compound 2 µM
row,Cell Line,relative viability
1,NCI-H522,0.945
2,SK-LU-1,0.4
3,NCI-H1792,0.695
4,NCI-H2087,0.22
5,NCI-H1355,0.374
6,SW 1573,0.402
7,LCLC-103H,0.486
8,NCI-H727,0.597
9,NCI-H2405,0.466
10,EMC-BAC-2,0.489
11,NCI-H23,0.428
12,HCC-366,0.369
13,NCI-H1648,0.248

# Compound: CC1=NN=C(O1)C2=NN=C(C=C2)N3CCC(CC3)OC4=C(C=CC(=C4)F)Cl + N=C(N)NC(=N)NCCc1ccccc1 [Phenformin] (partner 250 µM)
# Assay: as above
# Conditions: first compound 0.253 µM
# Procedure, shortened: as §1
row,Cell Line,relative viability
1,NCI-H522,0.679
2,NCI-H1623,0.568
3,SK-LU-1,0.584
4,NCI-H1792,0.294
5,NCI-H2087,0.425
6,NCI-H596,0.648
7,NCI-H1355,0.405
8,SW 1573,0.371
9,LCLC-103H,0.36
10,NCI-H727,0.613
11,NCI-H2405,0.406
12,EMC-BAC-2,0.594
13,NCI-H23,0.829
14,HCC-366,0.286
15,A549,0.158
16,NCI-H1563,0.646

# Same assay, conditions: first compound 0.8 µM
row,Cell Line,relative viability
1,NCI-H522,0.632
2,NCI-H1623,0.545
3,NCI-H1792,0.416
4,NCI-H2087,0.267
5,NCI-H596,0.611
6,NCI-H1355,0.37
7,SW 1573,0.329
8,LCLC-103H,0.344
9,NCI-H2405,0.383
10,EMC-BAC-2,0.479
11,HCC-366,0.285
12,A549,0.0878
13,NCI-H1563,0.659

# Same assay, conditions: first compound 2.53 µM
row,Cell Line,relative viability
1,NCI-H522,0.855
2,NCI-H1623,0.627
3,SK-LU-1,0.534
4,NCI-H1792,0.264
5,NCI-H2087,0.387
6,NCI-H596,0.697
7,NCI-H1355,0.446
8,SW 1573,0.351
9,LCLC-103H,0.335
10,NCI-H727,0.496
11,NCI-H2405,0.37
12,EMC-BAC-2,0.495
13,NCI-H23,0.729
14,HCC-366,0.309
15,A549,0.14
16,NCI-H1563,0.612

# Same assay, conditions: first compound 8 µM
row,Cell Line,relative viability
1,NCI-H522,0.526
2,NCI-H1623,0.574
3,SK-LU-1,0.475
4,NCI-H1792,0.384
5,NCI-H2087,0.341
6,NCI-H596,0.525
7,NCI-H1355,0.411
8,SW 1573,0.363
9,LCLC-103H,0.225
10,NCI-H727,0.482
11,NCI-H2405,0.328
12,EMC-BAC-2,0.517
13,NCI-H23,0.709
14,HCC-366,0.288
15,A549,0.147
16,NCI-H1563,0.641
